Laboratory results taken from PubChem BioAssay AID298 (DTP/NCI, 2004).
Where “and” joins values, the source holds several entries; their conditions need not be identical. Identical values can stand only once. Inconclusive results are not listed.

System: MX-1 breast xenograft, intrarenal, nude mice, tumor weight
Assay: NCI In Vivo Anticancer Drug Screen. Data for tumor model Human Mammary Carcinoma MX-1 Xenograft (intrarenal inoculation) in NU/NU BALB/C (nude) mice
Conditions: endpoint: mean tumor weight change, higher = larger tumour
Outline: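 T/C readout: treated-group measurement over vehicle-control measurement, using tumor size or survival in tumor-bearing mice.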

[1] = dose: 25.0 mg/kg/injection, schedule: Q04DX003 (ip), vehicle: saline with Tween-80

With `CC1OC(O[C@H]2/C=C/C=C/C=C/C=C/C=C/C=C/C=C/[C@H](C)[C@@H](O)[C@@H](C)[C@H](C)OC(=O)C[C@H](O)C[C@H](O)CC[C@@H](O)[C@H](O)C[C@H](O)C[C@]3(O)C[C@H](O)[C@@H](C(=O)O)[C@H](C2)O3)C(O)C(N)C1O` (stereo partly specified) the T/C (dose: 12.5 mg/kg/injection, schedule: Q04DX003 (ip), vehicle: suspension in saline) was 61 % of control, the T/C (dose: 25.0 mg/kg/injection, schedule: Q04DX003 (ip), vehicle: suspension in saline) was 57 % of control and the T/C (dose: 50.0 mg/kg/injection, schedule: Q04DX003 (ip), vehicle: suspension in saline) was 77 % of control. For the same compound, the T/C (dose: 100.0 mg/kg/injection, schedule: Q04DX003 (ip), vehicle: suspension in saline) was 84 % of control and 89 % of control, the T/C (dose: 200.0 mg/kg/injection, schedule: Q04DX003 (ip), vehicle: suspension in saline) was 73 % of control and the T/C (dose: 400.0 mg/kg/injection, schedule: Q04DX003 (ip), vehicle: suspension in saline) was 79 % of control.

With `COc1cc(C(C)(C)C)cc(OC)c1C(O)(c1c(OC)cc(C(C)(C)C)cc1OC)c1c(OC)cc(C(C)(C)C)cc1OC` the T/C (dose: 200.0 mg/kg/injection, schedule: Q04DX003 (sc), vehicle: saline with Tween-80) was 93 % of control, the T/C (dose: 400.0 mg/kg/injection, schedule: Q04DX003 (sc), vehicle: saline with Tween-80) was 88 % of control and the T/C (dose: 800.0 mg/kg/injection, schedule: Q04DX003 (sc), vehicle: saline with Tween-80) was 96 % of control. For the same compound, the T/C (dose: 1600.0 mg/kg/injection, schedule: Q04DX003 (sc), vehicle: saline with Tween-80) was 100 % of control.

With `CC1OC2CC(O)C1(O)C1=C2C(O)=C(C(N)=O)C(=N)C1=O` (stereo unspecified) the T/C (dose: 0.62 mg/kg/injection, schedule: Q04DX003 (ip), vehicle: saline) was 99 % of control, the T/C (dose: 1.25 mg/kg/injection, schedule: Q04DX003 (ip), vehicle: saline) was 62 % of control and the T/C (dose: 2.5 mg/kg/injection, schedule: Q04DX003 (ip), vehicle: saline) was 101 % of control.

`C=CCCC(=O)CCCC(=O)O[C@@H]1[C@@H]2[C@H](CC1(C)C)[C@H](O)[C@@]13O[C@@H]1[C@H](O)[C@@]1(CO1)[C@@]23C` was tested, and the T/C (dose: 0.4 mg/kg/injection, schedule: Q04DX003 (ip), vehicle: Klucel (hydroxypropylcellulose) (HPC)) was 79 % of control, the T/C (dose: 0.8 mg/kg/injection, schedule: Q04DX003 (ip), vehicle: Klucel (hydroxypropylcellulose) (HPC)) was 82 % of control and the T/C (dose: 1.6 mg/kg/injection, schedule: Q04DX003 (ip), vehicle: Klucel (hydroxypropylcellulose) (HPC)) was 92 % of control. The T/C (dose: 3.2 mg/kg/injection, schedule: Q04DX003 (ip), vehicle: Klucel (hydroxypropylcellulose) (HPC)) was 81 % of control, the T/C (dose: 100.0 micrograms/kg/injection, schedule: Q04DX003 (ip), vehicle: Klucel (hydroxypropylcellulose) (HPC)) was 120 % of control and the T/C (dose: 200.0 micrograms/kg/injection, schedule: Q04DX003 (ip), vehicle: Klucel (hydroxypropylcellulose) (HPC)) was 97 % of control. The T/C (dose: 400.0 micrograms/kg/injection, schedule: Q04DX003 (ip), vehicle: Klucel (hydroxypropylcellulose) (HPC)) was 89 % of control and the T/C (dose: 800.0 micrograms/kg/injection, schedule: Q04DX003 (ip), vehicle: Klucel (hydroxypropylcellulose) (HPC)) was 121 % of control.

In the case of `N#CCS(=O)(=O)c1cccc[n+]1[O-]`, the T/C (dose: 150.0 mg/kg/injection, schedule: Q04DX003 (ip), vehicle: saline with Tween-80) was 77 % of control and the T/C (dose: 300.0 mg/kg/injection, schedule: Q04DX003 (ip), vehicle: saline with Tween-80) was 67 % of control.

`N=C(N)c1ccc(Nc2ccc(-c3cc4ccc(C(=N)N)cc4[nH]3)cc2)cc1` was tested, and the T/C (dose: 3.75 mg/kg/injection, schedule: Q04DX003 (ip), vehicle: saline) was 84 % of control, the T/C (dose: 7.5 mg/kg/injection, schedule: Q04DX003 (ip), vehicle: saline) was 69 % of control and the T/C (dose: 15.0 mg/kg/injection, schedule: Q04DX003 (ip), vehicle: saline) was 62 % of control.

For `CCC(C(=O)O)C(=O)O.[NH2-].[NH2-].[Pt+2]`, the T/C (dose: 37.5 mg/kg/injection, schedule: Q04DX003 (sc), vehicle: saline) was -27 % of control, the T/C (dose: 37.5 mg/kg/injection, schedule: Q04DX003 (sc), vehicle: suspension in saline) was -100 % of control and the T/C (dose: 75.0 mg/kg/injection, schedule: Q04DX003 (sc), vehicle: saline) was -100 % of control. For the same compound, the T/C (dose: 75.0 mg/kg/injection, schedule: Q04DX003 (sc), vehicle: suspension in saline) was -100 % of control, the T/C (dose: 150.0 mg/kg/injection, schedule: Q04DX003 (sc), vehicle: saline) was -100 % of control and the T/C (dose: 150.0 mg/kg/injection, schedule: Q04DX003 (sc), vehicle: suspension in saline) was -100 % of control.

With `C/C=C\C1OC1(C)c1cc(=O)c2c(C)cc3c(c2o1)C(=O)c1c(O)c(C2CC(C)(N(C)C)C(OC(C)=O)C(C)O2)cc(C2CC(N(C)C)C(O)C(C)O2)c1C3=O` (stereo unspecified) the T/C (dose: 0.75 mg/kg/injection, schedule: Q04DX003 (ip), vehicle: saline + alcohol) was 89 % of control, the T/C (dose: 1.5 mg/kg/injection, schedule: Q04DX003 (ip), vehicle: saline + alcohol) was 34 % of control and 50 % of control and the T/C (dose: 3.0 mg/kg/injection, schedule: Q04DX003 (ip), vehicle: saline + alcohol) was 29 % of control and 47 % of control. For the same compound, the T/C (dose: 6.0 mg/kg/injection, schedule: Q04DX003 (ip), vehicle: saline + alcohol) was 11 % of control and 32 % of control and the T/C (dose: 12.0 mg/kg/injection, schedule: Q04DX003 (ip), vehicle: saline + alcohol) was 39 % of control.

In the case of `Cc1noc2nc(-c3ccccc3)cc(N3CCN(C)CC3)c12`, the T/C (dose: 75.0 mg/kg/injection, schedule: Q04DX003 (ip), vehicle: other) was 83 % of control, the T/C (dose: 150.0 mg/kg/injection, schedule: Q04DX003 (ip), vehicle: other) was 120 % of control and the T/C (dose: 300.0 mg/kg/injection, schedule: Q04DX003 (ip), vehicle: other) was 92 % of control.

In the case of `COc1ccc(C(C)c2cc3c(cc2OC)OCO3)cc1` (stereo unspecified), the T/C (dose: 12.5 mg/kg/injection, schedule: Q04DX003 (ip), vehicle: saline with Tween-80) was 88 % of control, the T/C [1] was 79 % of control and the T/C (dose: 50.0 mg/kg/injection, schedule: Q04DX003 (ip), vehicle: saline with Tween-80) was 83 % of control. For the same compound, the T/C (dose: 100.0 mg/kg/injection, schedule: Q04DX003 (ip), vehicle: saline with Tween-80) was 53 % of control.

`CCCSc1nc(COC(=O)NC)c(COC(=O)NC)n1C` was tested, and the T/C (dose: 30.0 mg/kg/injection, schedule: Q04DX003 (ip), vehicle: saline) was 74 % of control, the T/C (dose: 60.0 mg/kg/injection, schedule: Q04DX003 (ip), vehicle: saline) was 76 % of control and the T/C (dose: 120.0 mg/kg/injection, schedule: Q04DX003 (ip), vehicle: saline) was 70 % of control. For the same compound, the T/C (dose: 240.0 mg/kg/injection, schedule: Q04DX003 (ip), vehicle: saline) was 26 % of control.

With `Cc1cc(N)c2ccccc2[n+]1CCCCCCCCCC[n+]1c(C)cc(N)c2ccccc21` the T/C (dose: 0.75 mg/kg/injection, schedule: Q01DX010 (ip), vehicle: dextrose) was 89 % of control, the T/C (dose: 1.5 mg/kg/injection, schedule: Q01DX010 (ip), vehicle: dextrose) was 79 % of control and the T/C (dose: 2.0 mg/kg/injection, schedule: Q01DX010 (ip), vehicle: dextrose) was 47 % of control. The T/C (dose: 3.0 mg/kg/injection, schedule: Q01DX010 (ip), vehicle: dextrose) was 41 % of control.

For `NC(=O)C1=CC2C3C=CC2(O)C(=O)OC3O1` (stereo unspecified), the T/C (dose: 37.5 mg/kg/injection, schedule: Q04DX003 (ip), vehicle: Klucel (hydroxypropylcellulose) (HPC)) was 54 % of control and the T/C (dose: 75.0 mg/kg/injection, schedule: Q04DX003 (ip), vehicle: Klucel (hydroxypropylcellulose) (HPC)) was 42 % of control.

`O=C(O)CC1C(=O)OC2C3COC(=O)c4cc(O)c(O)c(O)c4-c4c(cc(O)c(O)c4O)C(=O)OC2C(OC(=O)c2cc(O)c(O)c4c2C1C(O)C(=O)O4)C(OC(=O)c1cc(O)c(O)c(O)c1)O3` (stereo unspecified) was tested, and the T/C (dose: 25.0 mg/kg/injection, schedule: Q04DX003 (ip), vehicle: saline) was 120 % of control, the T/C (dose: 50.0 mg/kg/injection, schedule: Q04DX003 (ip), vehicle: saline) was 99 % of control and the T/C (dose: 100.0 mg/kg/injection, schedule: Q04DX003 (ip), vehicle: saline) was 73 % of control.

With `CC(C)N1C(=O)N(Cl)C2C1N(Cl)C(=O)N2Cl` (stereo unspecified) the T/C [1] was 113 % of control.

In the case of `CC(=O)ON(C(C)=O)c1ccc(C(N)=O)cc1`, the T/C (dose: 600.0 mg/kg/injection, schedule: Q04DX003 (sc), vehicle: saline with Tween-80) was 52 % of control and the T/C (dose: 2400.0 mg/kg/injection, schedule: Q04DX003 (sc), vehicle: saline with Tween-80) was 98 % of control.

In the case of `C=C(C)C1C2CC3(C)C4(CO4)C4OC4C3(O)C1C(=O)O2` (stereo unspecified), the T/C (dose: 0.15 mg/kg/injection, schedule: Q04DX003 (ip), vehicle: Klucel (hydroxypropylcellulose) (HPC)) was 116 % of control, the T/C (dose: 0.31 mg/kg/injection, schedule: Q04DX003 (ip), vehicle: Klucel (hydroxypropylcellulose) (HPC)) was 86 % of control and the T/C (dose: 0.62 mg/kg/injection, schedule: Q04DX003 (ip), vehicle: Klucel (hydroxypropylcellulose) (HPC)) was 106 % of control.

For `CC1Oc2cc3c(-c4c(O)cc(O)c5c(O)c6c(cc45)OC(C)C(C)C6=O)c(O)cc(O)c3c(O)c2C(=O)C1C` (stereo unspecified), the T/C (dose: 9.0 mg/kg/injection, schedule: Q04DX003 (ip), vehicle: suspension in saline) was 21 % of control and the T/C (dose: 12.0 mg/kg/injection, schedule: Q04DX003 (ip), vehicle: suspension in saline) was 15 % of control.

For `C[C@]12CC[C@H]3[C@@H](CCC4=C[C@@H](OC5OCC(OC6OC(CO)C(O)C(O)C6O)C(O)C5O)CC[C@@]43C=O)[C@@]1(O)CCC2C1=CC(=O)OC1` (stereo partly specified), the T/C (dose: 15.0 mg/kg/injection, schedule: Q04DX003 (sc), vehicle: Klucel (hydroxypropylcellulose) (HPC)) was 118 % of control.
